From ChEMBL document CHEMBL1155519, “Discovery of N-phenyl-4-(thiazol-5-yl)pyrimidin-2-amine aurora kinase inhibitors” (J Med Chem, 2010)
Active and inactive are the calls of the source. The calls are words filed in the database; no cut-off is given here.

Legend:
[1] = Inhibition of CK2
U2OS = assay: Inhibition of Aurora kinase in nocodazole-synchronized human U2OS cells assessed as reduction of histone H3 serine-10 phosphorylation at 0.07 to 10 uM after 2 hrs immunofluorescence microscopy; type: cell-based
[2] = biological target: Voltage-gated inwardly rectifying potassium channel KCNH2 (Homo sapiens, UniProt Q12809); assay: Inhibition of human ERG expressed in CHO cells up to 50 uM by patch-clamp electrophysiology; type: cell-based
Chain of Voltage-gated inwardly rectifying potassium channel KCNH2 (Q12809 whole entry): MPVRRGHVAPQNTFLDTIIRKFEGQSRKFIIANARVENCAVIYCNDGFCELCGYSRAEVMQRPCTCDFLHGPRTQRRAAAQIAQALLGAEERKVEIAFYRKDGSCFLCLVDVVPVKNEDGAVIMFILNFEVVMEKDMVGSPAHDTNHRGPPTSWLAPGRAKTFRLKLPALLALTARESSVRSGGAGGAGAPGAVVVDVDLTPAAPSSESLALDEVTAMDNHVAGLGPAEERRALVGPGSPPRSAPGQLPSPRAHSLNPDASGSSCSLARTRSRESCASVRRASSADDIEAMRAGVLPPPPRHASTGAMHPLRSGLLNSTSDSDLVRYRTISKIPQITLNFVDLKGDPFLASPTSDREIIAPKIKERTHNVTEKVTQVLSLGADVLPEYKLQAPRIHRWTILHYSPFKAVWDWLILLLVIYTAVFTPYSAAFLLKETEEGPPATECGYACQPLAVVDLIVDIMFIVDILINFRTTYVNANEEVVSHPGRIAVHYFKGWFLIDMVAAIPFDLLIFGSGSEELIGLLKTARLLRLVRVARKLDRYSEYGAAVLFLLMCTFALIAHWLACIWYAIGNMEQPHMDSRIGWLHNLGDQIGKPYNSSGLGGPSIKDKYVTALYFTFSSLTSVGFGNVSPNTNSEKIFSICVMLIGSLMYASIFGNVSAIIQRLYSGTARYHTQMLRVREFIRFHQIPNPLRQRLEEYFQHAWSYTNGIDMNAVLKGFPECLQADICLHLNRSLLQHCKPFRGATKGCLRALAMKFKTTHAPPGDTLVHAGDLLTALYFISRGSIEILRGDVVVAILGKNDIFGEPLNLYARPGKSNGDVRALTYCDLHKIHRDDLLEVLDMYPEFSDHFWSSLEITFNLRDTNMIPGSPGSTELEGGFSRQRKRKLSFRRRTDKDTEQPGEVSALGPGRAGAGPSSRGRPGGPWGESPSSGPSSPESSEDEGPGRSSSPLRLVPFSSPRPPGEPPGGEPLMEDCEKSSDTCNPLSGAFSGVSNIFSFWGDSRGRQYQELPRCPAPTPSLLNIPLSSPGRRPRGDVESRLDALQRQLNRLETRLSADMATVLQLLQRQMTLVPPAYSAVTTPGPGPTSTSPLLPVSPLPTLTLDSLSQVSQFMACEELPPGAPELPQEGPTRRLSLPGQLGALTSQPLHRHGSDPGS

Cytochrome P450 2D6 = Cytochrome P450 2D6 (Homo sapiens, UniProt P10635); assay: Inhibition of human recombinant CYP2D6 at 5 uM; type: ADME; details: recombinant enzyme
Chain of Cytochrome P450 2D6 (P10635 whole entry): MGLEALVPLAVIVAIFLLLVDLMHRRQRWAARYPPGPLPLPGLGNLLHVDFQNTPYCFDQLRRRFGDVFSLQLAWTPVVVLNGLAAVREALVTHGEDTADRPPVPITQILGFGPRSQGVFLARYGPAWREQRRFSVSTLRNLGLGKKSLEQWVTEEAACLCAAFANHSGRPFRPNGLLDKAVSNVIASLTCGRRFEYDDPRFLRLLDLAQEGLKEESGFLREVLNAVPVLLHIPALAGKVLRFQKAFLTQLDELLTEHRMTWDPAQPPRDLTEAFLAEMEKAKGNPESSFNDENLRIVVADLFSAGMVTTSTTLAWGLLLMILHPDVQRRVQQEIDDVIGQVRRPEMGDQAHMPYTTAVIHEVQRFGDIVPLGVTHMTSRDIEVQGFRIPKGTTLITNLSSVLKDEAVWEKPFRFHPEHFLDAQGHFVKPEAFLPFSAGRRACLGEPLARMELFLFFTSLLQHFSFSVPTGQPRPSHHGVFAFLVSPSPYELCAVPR

Mus musculus [3] = assay: Toxicity in athymic mouse xenografted with human NCI-H460 cells assessed as body weight loss at 75 mg/kg, po administered QD on day 1 after implantation for 5 days measured on day 13; type: organism-based; parameters: dose 75 mg/kg, route oral; details: in vivo, 120 h
NCI-H460 [4] = assay: Antitumor activity against human NCI-H460 cells xenografted in athymic mouse assessed as delay in tumor growth at 100 mg/kg, po administered QD on day 1 after implantation for 5 days; type: functional
NCI-H460 [5] = assay: Antitumor activity against human NCI-H460 cells xenografted in athymic mouse assessed as delay in tumor growth at 75 mg/kg, po administered QD on day 1 after implantation for 5 days; type: functional
K562 = assay: Cytotoxicity against human K562 cells after 96 hrs by MTT assay; type: functional, cell-based; details: K562, 96 h
[6] = Oral bioavailability in mouse up to 100 mg/kg; type: ADME, organism-based; details: in vivo
HT-29 = assay: Cytotoxicity against human HT-29 cells after 96 hrs by MTT assay; type: functional, cell-based; details: HT-29, 96 h
[7] = Cytotoxicity against human MESSA cells after 96 hrs by MTT assay; type: functional, cell-based; details: MES-SA
Cytochrome P450 3A = Cytochrome P450 3A (Homo sapiens, UniProt P08684+P20815+Q9HB55+P24462); assay: Inhibition of CYP3A in human hepatocyte at 5 uM; type: ADME, cell-based; details: hepatocytes
[8] = AUC (0 to 24 hrs) in Wistar rat at 10 mg/kg, po after 24 hrs by LC/MS/MS analysis; type: ADME, organism-based; parameters: time < 24 hr, dose 10 mg/kg, route oral; details: plasma
NCI-H460 [9] = assay: Antitumor activity against human NCI-H460 cells xenografted in athymic mouse assessed as reduction in mean tumor volume at 100 mg/kg, po administered QD on day 1 after implantation for 5 days measured on day 9 relative to control; type: functional; parameters: scale not given: the % may be the effect or the level left
SW-620 [10] = assay: Induction of apoptosis in human SW620 cells assessed as early apoptotic cells at 1 uM after 48 hrs by TUNEL assay; type: functional
[11] = Oral bioavailability in Wistar rat at 10 mg/kg after 24 hrs by LC/MS/MS analysis; type: ADME, organism-based; details: in vivo
SW-620 [12] = assay: Induction of apoptosis in human SW620 cells assessed as late apoptotic cells at 1 uM after 48 hrs by TUNEL assay; type: functional
[13] = Apparent permeability across human Caco-2 cell membrane; type: ADME, cell-based
CCRF-CEM = assay: Cytotoxicity against human CCRF-CEM cells after 96 hrs by MTT assay; type: functional, cell-based
Cytochrome P450 1A = Cytochrome P450 1A (Homo sapiens, UniProt P04798+P05177); assay: Inhibition of CYP1A in human hepatocyte at 1 uM; type: ADME, cell-based; details: hepatocytes
[14] = Inhibition of PKC
Mus musculus [15] = assay: Toxicity in athymic mouse xenografted with human NCI-H460 cells assessed as body weight loss at 100 mg/kg, po administered QD on day 1 after implantation for 5 days measured on day 13; type: organism-based; parameters: dose 100 mg/kg, route oral; details: in vivo, 120 h
[16] = Apparent volume of distribution with respect to the bioavailability in Wistar rat at 10 mg/kg, po after 24 hrs by LC/MS/MS analysis; type: ADME, organism-based; details: in vivo, read-out: Vc/F
Cytochrome P450 2C9 = Cytochrome P450 2C9 (Homo sapiens, UniProt P11712); assay: Inhibition of human recombinant CYP2C9 at 5 uM; type: ADME; details: recombinant enzyme
Chain of Cytochrome P450 2C9 (P11712 whole entry): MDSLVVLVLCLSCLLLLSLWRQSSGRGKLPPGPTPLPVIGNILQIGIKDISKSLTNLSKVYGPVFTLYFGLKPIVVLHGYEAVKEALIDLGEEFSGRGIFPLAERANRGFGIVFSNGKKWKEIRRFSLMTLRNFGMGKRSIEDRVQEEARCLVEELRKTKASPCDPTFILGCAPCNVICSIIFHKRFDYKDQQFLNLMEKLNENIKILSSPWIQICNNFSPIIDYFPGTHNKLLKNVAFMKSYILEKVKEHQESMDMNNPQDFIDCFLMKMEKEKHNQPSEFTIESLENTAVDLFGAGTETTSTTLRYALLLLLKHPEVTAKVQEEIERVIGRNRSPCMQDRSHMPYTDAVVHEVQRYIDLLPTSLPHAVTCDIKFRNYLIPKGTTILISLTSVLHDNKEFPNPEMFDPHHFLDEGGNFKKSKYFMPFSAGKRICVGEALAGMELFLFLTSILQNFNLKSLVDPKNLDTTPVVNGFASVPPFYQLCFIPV

[17] = Fraction unbound in rat plasma by equilibrium dialysis; type: ADME, cell-free
NCI-H460 [18] = assay: Cytotoxicity against human NCI-H460 cells after 96 hrs by MTT assay; type: functional, cell-based; details: NCI-H460, 96 h
[19] = biological target: Mitogen-activated protein kinase 14 (Homo sapiens, UniProt Q16539); assay: Inhibition of SAPK2A
Chain of Mitogen-activated protein kinase 14 (Q16539 whole entry): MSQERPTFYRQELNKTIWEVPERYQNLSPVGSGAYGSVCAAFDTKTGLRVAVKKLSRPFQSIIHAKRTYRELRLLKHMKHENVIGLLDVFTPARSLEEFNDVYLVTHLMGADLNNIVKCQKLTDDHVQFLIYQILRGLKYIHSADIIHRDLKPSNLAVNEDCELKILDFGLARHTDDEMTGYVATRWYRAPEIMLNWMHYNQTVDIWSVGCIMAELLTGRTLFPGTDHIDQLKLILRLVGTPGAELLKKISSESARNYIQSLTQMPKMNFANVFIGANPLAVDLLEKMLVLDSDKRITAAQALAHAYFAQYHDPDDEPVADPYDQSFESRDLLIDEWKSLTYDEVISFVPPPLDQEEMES

[20] = Cmax in Wistar rat at 10 mg/kg, po after 24 hrs by LC/MS/MS analysis; type: ADME, organism-based; parameters: dose 10 mg/kg, route oral; details: in vivo

Cc1nc(N)sc1-c1ccnc(Nc2ccc(N3CCOCC3)cc2)n1 [CYC-116]
Ki [1]: > 10 µM
inhibition (U2OS): Active
inhibition (INH) [2]: Not Active
inhibition (INH) (Cytochrome P450 2D6): Active
Activity (Mus musculus [3]): Non-toxic
Activity (NCI-H460 [4]): 5.8 days
Activity (NCI-H460 [5]): 2.3 days
IC50 (K562): 1380 nM
bioavailability [6]: ≤ 61%
IC50 (HT-29): 725 nM
IC50 [7]: 90 nM
inhibition (INH) (Cytochrome P450 3A): Active
AUC(0-t) at 24 h [8]: 13.6 µM·h
Activity (NCI-H460 [9]): 19%
Activity (SW-620 [10]): 64.8%
bioavailability [11]: 38%
Activity (SW-620 [12]): 34.7%
Papp [13]: 47 ×10⁻⁶ cm/s
IC50 (CCRF-CEM): 471 nM
inhibition (INH) (Cytochrome P450 1A): Not Active
Ki [14]: > 10 µM
Activity (Mus musculus [15]): Non-toxic
Vd/F [16]: 8.5 L/kg
inhibition (INH) (Cytochrome P450 2C9): Active
fraction unbound [17]: 0.93
IC50 (NCI-H460 [18]): 681 nM
Ki [19]: > 10 µM
Cmax [20]: 3.9 µM
